Source: ChEMBL document CHEMBL1138371, “Discovery of low nanomolar non-hydroxamate inhibitors of tumor necrosis factor-alpha converting enzyme (TACE)” (Bioorg Med Chem Lett, 2007)

How the values were obtained:
[1] = biological target: Matrix metalloproteinase-9 (Homo sapiens, UniProt P14780); experiment: Inhibition of MMP9
[2] = biological target: T1, Matrilysin (Homo sapiens, UniProt P09237); experiment: Inhibition of MMP7
T1 sequence (P09237 whole entry): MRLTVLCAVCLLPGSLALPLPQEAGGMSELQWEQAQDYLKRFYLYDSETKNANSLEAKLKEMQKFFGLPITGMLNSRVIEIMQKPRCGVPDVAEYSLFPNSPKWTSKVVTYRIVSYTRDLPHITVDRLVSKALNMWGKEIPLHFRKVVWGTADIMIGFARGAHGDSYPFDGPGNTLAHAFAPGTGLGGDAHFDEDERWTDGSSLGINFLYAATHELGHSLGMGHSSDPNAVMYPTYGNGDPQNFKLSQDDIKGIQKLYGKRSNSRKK

[3] = biological target: 72 kDa type IV collagenase (Homo sapiens, UniProt P08253); experiment: Inhibition of MMP2
[4] = biological target: Disintegrin and metalloproteinase domain-containing protein 17 (Sus scrofa, UniProt O77636); experiment: Inhibition of porcine TACE
[5] = species: Homo sapiens; experiment: Inhibition of aggrecanase at 1 uM
[6] = biological target: Macrophage metalloelastase (Homo sapiens, UniProt P39900); experiment: Inhibition of MMP12
[7] = biological target: T2, Interstitial collagenase (Homo sapiens, UniProt P03956); experiment: Inhibition of MMP1
T2 sequence (P03956 whole entry): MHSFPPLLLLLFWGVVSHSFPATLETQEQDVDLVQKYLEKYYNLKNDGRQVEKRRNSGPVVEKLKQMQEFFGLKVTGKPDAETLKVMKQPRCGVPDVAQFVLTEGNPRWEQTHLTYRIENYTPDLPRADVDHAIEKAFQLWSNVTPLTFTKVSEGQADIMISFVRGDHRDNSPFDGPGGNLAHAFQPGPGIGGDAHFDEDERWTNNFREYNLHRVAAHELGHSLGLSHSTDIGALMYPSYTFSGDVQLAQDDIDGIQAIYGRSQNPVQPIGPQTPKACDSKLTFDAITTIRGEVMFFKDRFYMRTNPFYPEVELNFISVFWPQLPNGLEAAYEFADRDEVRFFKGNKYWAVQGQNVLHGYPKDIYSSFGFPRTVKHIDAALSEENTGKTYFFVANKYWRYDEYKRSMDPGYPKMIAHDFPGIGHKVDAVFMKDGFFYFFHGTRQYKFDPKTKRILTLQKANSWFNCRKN

[8] = biological target: Stromelysin-1 (Homo sapiens, UniProt P08254); experiment: Inhibition of MMP3
[9] = biological target: Collagenase 3 (Homo sapiens, UniProt P45452); experiment: Inhibition of MMP13

Matrix metalloproteinase-9, sequence (P14780 whole entry): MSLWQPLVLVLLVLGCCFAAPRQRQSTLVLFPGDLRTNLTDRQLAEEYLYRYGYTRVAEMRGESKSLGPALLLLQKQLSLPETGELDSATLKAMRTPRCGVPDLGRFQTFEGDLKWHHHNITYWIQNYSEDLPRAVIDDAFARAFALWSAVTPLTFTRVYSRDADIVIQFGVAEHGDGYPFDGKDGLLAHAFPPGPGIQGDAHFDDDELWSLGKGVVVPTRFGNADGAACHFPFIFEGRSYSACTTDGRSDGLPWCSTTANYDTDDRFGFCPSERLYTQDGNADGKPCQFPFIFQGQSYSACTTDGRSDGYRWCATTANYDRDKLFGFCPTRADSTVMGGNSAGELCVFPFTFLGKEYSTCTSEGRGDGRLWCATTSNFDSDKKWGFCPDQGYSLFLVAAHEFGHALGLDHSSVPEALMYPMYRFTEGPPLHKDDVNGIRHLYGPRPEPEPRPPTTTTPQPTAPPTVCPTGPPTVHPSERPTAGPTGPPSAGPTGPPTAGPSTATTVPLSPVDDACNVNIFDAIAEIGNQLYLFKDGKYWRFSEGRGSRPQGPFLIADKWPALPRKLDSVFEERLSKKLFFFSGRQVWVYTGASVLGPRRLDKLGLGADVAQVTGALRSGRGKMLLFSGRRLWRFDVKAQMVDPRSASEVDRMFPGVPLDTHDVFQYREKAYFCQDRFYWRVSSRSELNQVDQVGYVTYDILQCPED
Disintegrin and metalloproteinase domain-containing protein 17, sequence (O77636 whole entry, the tested form may be a part): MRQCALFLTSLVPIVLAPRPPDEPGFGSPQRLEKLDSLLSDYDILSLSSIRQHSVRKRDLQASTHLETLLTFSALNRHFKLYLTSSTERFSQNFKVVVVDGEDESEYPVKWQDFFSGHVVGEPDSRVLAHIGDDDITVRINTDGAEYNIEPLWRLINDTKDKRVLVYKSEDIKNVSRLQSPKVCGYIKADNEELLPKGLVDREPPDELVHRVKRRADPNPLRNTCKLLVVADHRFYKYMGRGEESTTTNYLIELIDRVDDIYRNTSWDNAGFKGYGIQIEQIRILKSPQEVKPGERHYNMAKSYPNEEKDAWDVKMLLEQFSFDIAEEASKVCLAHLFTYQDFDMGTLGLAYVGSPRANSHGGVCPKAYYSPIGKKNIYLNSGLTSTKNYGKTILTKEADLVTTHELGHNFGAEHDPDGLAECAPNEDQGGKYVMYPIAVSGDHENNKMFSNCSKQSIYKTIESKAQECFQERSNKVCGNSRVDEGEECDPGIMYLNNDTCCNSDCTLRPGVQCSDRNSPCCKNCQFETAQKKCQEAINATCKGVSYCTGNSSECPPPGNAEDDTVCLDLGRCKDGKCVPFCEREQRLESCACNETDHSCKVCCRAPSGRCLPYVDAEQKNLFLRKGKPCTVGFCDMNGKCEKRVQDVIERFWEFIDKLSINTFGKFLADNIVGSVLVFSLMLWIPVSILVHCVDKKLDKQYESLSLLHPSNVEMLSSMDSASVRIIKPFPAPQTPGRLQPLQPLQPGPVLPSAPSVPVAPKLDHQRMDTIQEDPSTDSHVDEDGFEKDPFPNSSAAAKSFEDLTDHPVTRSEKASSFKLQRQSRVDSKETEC
Macrophage metalloelastase, sequence (P39900 whole entry): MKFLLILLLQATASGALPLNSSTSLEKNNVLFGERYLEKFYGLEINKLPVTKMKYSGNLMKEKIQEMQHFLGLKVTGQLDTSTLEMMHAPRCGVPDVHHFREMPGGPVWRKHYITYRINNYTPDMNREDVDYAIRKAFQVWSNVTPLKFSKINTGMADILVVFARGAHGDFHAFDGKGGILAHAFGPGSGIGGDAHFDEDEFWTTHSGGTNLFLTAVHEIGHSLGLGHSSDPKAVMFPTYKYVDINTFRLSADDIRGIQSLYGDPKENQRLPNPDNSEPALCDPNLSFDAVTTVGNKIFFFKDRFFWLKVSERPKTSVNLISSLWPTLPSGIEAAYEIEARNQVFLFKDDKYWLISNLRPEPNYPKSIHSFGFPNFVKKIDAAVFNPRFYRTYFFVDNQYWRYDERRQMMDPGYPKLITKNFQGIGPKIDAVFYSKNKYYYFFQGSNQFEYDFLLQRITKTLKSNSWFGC
Stromelysin-1, sequence (P08254 whole entry): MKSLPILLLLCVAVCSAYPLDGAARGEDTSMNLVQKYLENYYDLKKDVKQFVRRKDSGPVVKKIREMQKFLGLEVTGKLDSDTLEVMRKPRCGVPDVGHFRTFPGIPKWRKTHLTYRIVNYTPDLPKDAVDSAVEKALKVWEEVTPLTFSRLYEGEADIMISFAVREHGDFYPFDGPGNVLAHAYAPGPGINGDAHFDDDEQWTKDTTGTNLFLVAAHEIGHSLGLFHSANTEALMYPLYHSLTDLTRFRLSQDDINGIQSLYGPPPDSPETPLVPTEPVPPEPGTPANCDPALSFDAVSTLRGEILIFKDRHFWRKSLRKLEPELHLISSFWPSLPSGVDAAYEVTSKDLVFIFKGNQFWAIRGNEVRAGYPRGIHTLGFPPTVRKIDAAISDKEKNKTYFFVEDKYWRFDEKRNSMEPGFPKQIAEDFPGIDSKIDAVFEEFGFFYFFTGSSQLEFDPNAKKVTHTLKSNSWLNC
72 kDa type IV collagenase, sequence (P08253 whole entry, the tested form may be a part): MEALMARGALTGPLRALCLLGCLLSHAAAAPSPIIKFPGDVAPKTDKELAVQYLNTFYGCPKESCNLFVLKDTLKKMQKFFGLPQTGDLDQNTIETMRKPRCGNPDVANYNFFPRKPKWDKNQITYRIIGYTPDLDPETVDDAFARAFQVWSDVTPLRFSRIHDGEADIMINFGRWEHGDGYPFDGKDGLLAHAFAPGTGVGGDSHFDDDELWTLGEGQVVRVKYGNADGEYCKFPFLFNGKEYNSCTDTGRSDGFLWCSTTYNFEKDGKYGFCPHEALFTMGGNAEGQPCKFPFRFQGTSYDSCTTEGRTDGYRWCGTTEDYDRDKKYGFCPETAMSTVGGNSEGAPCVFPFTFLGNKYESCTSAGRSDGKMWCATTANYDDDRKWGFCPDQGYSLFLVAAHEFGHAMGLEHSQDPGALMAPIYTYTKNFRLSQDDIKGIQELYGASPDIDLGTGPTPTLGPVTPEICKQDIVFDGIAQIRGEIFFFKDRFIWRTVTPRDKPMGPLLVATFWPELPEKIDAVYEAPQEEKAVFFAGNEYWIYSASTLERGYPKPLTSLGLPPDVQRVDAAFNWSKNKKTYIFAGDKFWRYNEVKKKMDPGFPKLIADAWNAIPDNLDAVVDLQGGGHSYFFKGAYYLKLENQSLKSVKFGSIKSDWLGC

Cc1cc(COc2ccc(C(=O)NCC3(C)C(=O)NC(=O)NC3=O)cc2)c2ccccc2n1
Ki [1]: > 2.13 µM | Ki [2]: > 6.37 µM | Ki [3]: > 3.33 µM | IC50 [4]: 0.026 µM | inhibition [5]: 0% | Ki [6]: > 6.02 µM | Ki [7]: > 4.95 µM | Ki [8]: > 4.5 µM | Ki [9]: > 5.02 µM
